This is an account of results in patent US8207167B2, “Aryl-phenyl-sulfonamide-phenylene compounds and their use” (PIMCO 2664 Limited, priority 2008, dated 2012).

pIC50: −log10 of the molar value. In brackets after ≈: the same amount, converted by molar mass.

The subject of one data set is J774 macrophages. In words: Alamar Blue macrophage J774 viability assay. The format is cell-based. The following applies: 72 hours culture with compound, Alamar Blue read-out. As to the method:
(§1) Initial screening of candidate compounds was performed using in vitro assays to determine potency, metabolic stability and solubility in biologically relevant fluids. Potency was assessed using a viability assay based on the survival of the J774 macrophage cell line. Macrophages are closely related to osteoclasts and have been used previously as a model system for osteoclast survival (see, e.g., Luckman et al., 1998). Like osteoclasts, J774 macrophages are dependent on continued NFκB activation for survival, thereby providing a valuable screen for compounds with anti-inflammatory activity. Metabolic stability was measured by determining the rate of disappearance of compound in the presence of human liver microsomal preparations, as quantified by LC-MS/MS. Solubility was measured by equilibration of the compound in fasted state simulated intestinal fluid (FaSSIF) and quantified by HPLC.
In vitro potency as anti-inflammatory agents was determined for a number of APSAP compounds by incubation with J774 macrophages and subsequent determination of cell viability.
J774 cells were plated at 10^4 cells per well in 100 μL αMEM (α Modified Eagle Medium) in 96-well plates and grown overnight. The next day, test compounds were added to the cultures, and cultures were continued for another 72 hours. At the end of the culture period, cell survival was determined using an Alamar Blue assay as previously described (see, e.g., Nociari et al., 1998).
Alamar Blue is an oxidation-reduction sensitive indicator. The dye itself is in the oxidised state, which is blue and non-fluorescent. The dye can accept electrons from reducing species, such as NADPH and FADH, to form a reduced dye species, which is red and fluorescent. Thus the transformation from oxidised form to reduced form can be measured by fluorimetric or colourimetric means. For fluorescence measurements, 530-560 nm excitation and 590 nm emission wavelengths are typically used. For colourimetric measurements, absorbance at 570 nm (reduced form) and 600 nm (oxidised form) is typically measured. A simple calculation is performed to determine the relative quantities of the two species.
A high ratio of the reducing species, NADPH and FADH, to the corresponding oxidised species, NADP and FAD, is an indicator that cells are proliferating and viable. A low ratio indicates cells that are quiescent or non-viable.
Briefly, Alamar Blue (Biosource International) was added undiluted to each well (1:10 v/v, 10 μL). The plate was incubated at 37° C. for 3-4 hours and the fluorescence was measured at 590 nm, with a 25 nm bandwidth. A high reading indicated cells with normal viability, and a low reading indicated cells that have been damaged and are no longer proliferating normally. The controls gave a high fluorescence reading, indicating a high number of live, healthy cells. A potent test compound gave a low fluorescence reading.
The average results for each test compound (n=5) were expressed as a percent (%) of the average control value.
Addition of Compounds. All of the compounds studied were made up as 100 mM solutions in DMSO. These stock solutions were then diluted 1000-10000× in culture medium (αMEM). From these 100 μM or 10 μM solutions, convenient quantities (3-33 μL) were added directly to the wells so as to give the desired final compound concentration.
For orientation: The colour change of resazurin is a common sign of viable cells or microbes.

The nature of data set [1]: Thermodynamic aqueous solubility in fasted state simulated intestinal fluid (FaSSIF). The following applies: 25° C., 24 hours equilibration, HPLC; for solubility at 24 h: pH 6.5, thermodynamic from solid. The format is physicochemical. The procedure:
as §1
Thermodynamic aqueous solubility was measured by equilibration of a number of APSAP compounds, in the solid state, with fasted state simulated intestinal fluid (FaSSIF) and quantified by HPLC. Measurement of solubility in FaSSIF provides a valuable model for the prediction of drug dissolution following oral administration.
Preparation of blank FaSSIF: NaOH pellets (174 mg), NaH2PO4.2H2O (2.235 g), and NaCl (3.093 g) were dissolved in 500 mL of water. The pH was adjusted to 6.5 using 1 M NaOH solution.
Preparation of FaSSIF: Sodium taurocholate (165 mg) was dissolved in 25 mL blank FaSSIF. 0.6 mL of a solution containing 100 mg/mL lecithin in methylene chloride was added. The methylene chloride was eliminated under vacuum at about 40° C. The vacuum was drawn for 15 minutes at 250 mbar, followed by 15 minutes at 100 mbar. […] After cooling to room temperature, the solution was then adjusted to 100 mL with blank FaSSIF.
The suspension was equilibrated at 25° C. for 24 hours, and then the pH was measured. The suspension was then filtered through a glass fibre C filter into a 96-well plate. The filtrate was then diluted by a factor of 100. Quantification was made by HPLC with reference to a standard solution of compound at approximately 0.1 mg/mL in DMSO. Different volumes of the standard, diluted and undiluted sample solutions were injected. The solubility was calculated using the peak areas determined by integration of the peak found at the same retention time as the principal peak in the standard injection. Analysis was performed on an Agilent HP1100 series system equipped with a diode array detector and using ChemStation software vB.02.01-SR1.

A short description of data set [2]: Human liver microsomal stability assay. It counts as in vitro ADME. The following applies: pooled human liver microsomes 0.5 mg/mL, test compound 3 μM, 45 minute incubation, NADPH; for half-life at 3 μM: both sexes, pH 7.4. The procedure: as §1
Metabolic stability of APSAP derivatives was measured by determination of the rate of compound disappearance when incubated in the presence of human liver microsomes. Liver microsomes are prepared from the endoplasmic reticulum of hepatocytes and are the primary source of the most important enzymes (cytochrome P450) involved in drug metabolism. Study of drug stability in the presence of liver microsomes is accepted as a valuable model permitting rapid prediction of in vivo drug stability.
Human liver microsomes were obtained from a commercial source. Test compounds (3 μM) were incubated with pooled liver microsomes (male and female). Samples were incubated for a 45 minute period and removed at 5 time points and test compounds were analysed by LC-MS/MS.
The final incubation volume was 25 μL. A control incubation was included for each compound tested, where 0.1 M phosphate buffer pH 7.4 was added instead of NADPH. The control compounds testosterone and 7-hydroxycoumarin were included in each experiment and all incubations were performed singularly for each compound.
Each compound was incubated for 0, 5, 15, 30, and 45 minutes. The control (minus NADPH) was incubated for 45 minutes only. The reactions were stopped by the addition of 50 μL methanol containing internal standard at the appropriate time points. The incubation plates were centrifuged at 2500 rpm for 20 minutes at 4° C. to precipitate the protein.
Following protein precipitation, the sample supernatants were combined in cassettes of up to 4 compounds and analysed using standard LC-MS/MS conditions.
From a plot of the natural logarithm of the peak area ratio (i.e., the ratio of compound peak area:internal standard peak area) against time, the gradient of the line was determined. Subsequently, half-life and intrinsic clearance were calculated using the equations below: Eliminated rate constant(k)=(−gradient). […] Intrinsic Clearance(CLint)([…])=(V×0.693)/t1/2. wherein V=Incubation volume(μL/mg microsomal protein). Pharmacokinetics Studies
On the technique in general: Microsomes from liver hold many membrane-bound enzymes, among them those of drug oxidation.

[3] abbreviates: fasted state simulated intestinal fluid (FaSSIF).

Consider `O=S(=O)(Nc1cccc(CO)c1)c1ccc(-c2ccc(F)cc2F)cc1` [ABD456, 2′,4′-difluoro-biphenyl-4-sulfonic acid (3-hydroxymethyl-phenyl)-amide, reference compound], for which the pIC50 (usually the negative decadic logarithm of the IC50, by convention in mol/L) in the data set with J774 macrophages (Mus musculus) is 6.60. The solubility (usually the dissolved amount per volume that the medium holds) at 24 h in data set [1] was 50 µg/mL (≈ 133 µM).

Take `O=S(=O)(Nc1ccc(CO)cc1)c1ccc(-c2ccc(F)cc2F)cc1` [ABD466, 2′,4′-difluoro-biphenyl-4-sulfonic acid (4-hydroxymethyl-phenyl)-amide, reference compound]: the negative logarithm of the IC50 (pIC50) in the data set on J774 macrophages (Mus musculus) was 5.52. In addition, the half-life – broadly, the time needed for the level to fall by half in the phase considered – at 3 μM in data set [2] is 2 min. The compound also had a solubility at 24 h in data set [1] of 40 µg/mL (≈ 107 µM).

For `Cc1c(CO)cccc1NS(=O)(=O)c1ccc(-c2ccc(F)cc2F)cc1` [ABD527, reference compound], the Solubility – broadly, the concentration that dissolves in the medium under given conditions – in data set [1] was 40 µg/mL (≈ 103 µM).

`O=S(=O)(Nc1ccc(CO)c(CO)c1)c1ccc(-c2ccc(F)cc2F)cc1` [ABD565, reference compound] came in with a Solubility in data set [1] of 30 µg/mL (≈ 74 µM).

Take `O=S(=O)(Nc1cccc(CO)c1)c1ccc(-c2ccc(Cl)cc2F)cc1` [ABD575, reference compound]: the negative-log IC50 (pIC50) in the data set with J774 macrophages is 6.40. In data set [1], this compound displayed a Solubility of 70 µg/mL (≈ 179 µM).

Compound `O=S(=O)(Nc1cc(CO)ccc1O)c1ccc(-c2ccc(F)cc2F)cc1` [ABD585, reference compound] showed a Solubility in data set [1] of 70 µg/mL (≈ 179 µM).

On to `O=C(O)c1cccc(NS(=O)(=O)c2ccc(-c3ccc(Cl)cc3Cl)cc2)c1` [ABD612, 3-(2′,4′-Dichlorobiphenyl-4-ylsulfonamido)benzoic acid, reference compound], for which, in data set [2], the T1/2 result is given as “Stable”. Further, the concentration in solution in data set [1] (setting [3]) (solubility at 24 h) was 130 µg/mL (≈ 308 µM).

For the compound `O=S(=O)(Nc1cccc(CCO)c1)c1ccc(-c2ccc(Cl)cc2Cl)cc1` [ABD625, reference compound], the T1/2 in data set [2] is recorded as 13 min.

For the compound `O=S(=O)(Nc1cccc(CCO)c1)c1ccc(-c2ccc(F)cc2F)cc1` [ABD628, 2′,4′-difluoro-biphenyl-4-sulfonic acid [3-(2-hydroxy-ethyl)-phenyl]-amide, reference compound], in data set [2], the half-life at 3 μM came to 18 min.

In data set [2], `O=S(=O)(Nc1cccc(CCO)c1)c1ccc(-c2ccc(Br)cc2)cc1` [ABD630, reference compound] came in with a T1/2 of 43 min. Further, the Solubility in data set [1] is 60 µg/mL (≈ 139 µM).

For the compound `CC(C)(O)c1cccc(NS(=O)(=O)c2ccc(-c3ccc(Cl)cc3Cl)cc2)c1` [ABD707, 2′,4′-Dichloro-N-(3-(2-hydroxypropan-2-yl)phenyl)biphenyl-4-sulfonamide], the pIC50 in the data set with J774 macrophages (Mus musculus) was 7.05. Also, the half-life at 3 μM in data set [2] turned out to be 12 min. For the same compound, the concentration in solution in data set [1] (setting [3]) (solubility at 24 h) came to 140 µg/mL (≈ 321 µM).

On to `CC(O)c1cccc(NS(=O)(=O)c2ccc(-c3ccc(Cl)cc3Cl)cc2)c1` (stereo not shown) [ABD708, 2′,4′-Dichloro-N-(3-(1-hydroxyethyl)phenyl)biphenyl-4-sulfonamide], for which the pIC50 in the data set with J774 macrophages (Mus musculus) is 6.74. In data set [2], this compound displayed a half-life at 3 μM of 6 min. The compound further came in with a solubility at 24 h in data set [1] (setting [3]) of 100 µg/mL (≈ 237 µM).

Regarding `O=S(=O)(Nc1cccc(C2(O)CC2)c1)c1ccc(-c2ccc(Cl)cc2Cl)cc1` [ABD709, 2′,4′-Dichloro-N-(3-(1-hydroxycyclopropyl)phenyl)biphenyl-4-sulfonamide], in the data set on J774 macrophages (Mus musculus), the pIC50 is 6.42. The compound further had a half-life at 3 μM in data set [2] of 18 min. Further, the solubility at 24 h in data set [1] (setting [3]) was 70 µg/mL (≈ 161 µM).

With `CN(C)Cc1cccc(NS(=O)(=O)c2ccc(-c3ccc(Cl)cc3Cl)cc2)c1` [ABD724, 2′,4′-Dichloro-N-(3-((dimethylamino)methyl)phenyl)biphenyl-4-sulfonamide], the pIC50 with J774 macrophages (Mus musculus) was 6.52. The half-life at 3 μM in data set [2] turned out to be 21 min. The concentration in solution in data set [1] (setting [3]) (solubility at 24 h) was 90 µg/mL (≈ 207 µM).

For the compound `CN(C)C(=O)c1cccc(NS(=O)(=O)c2ccc(-c3ccc(Cl)cc3Cl)cc2)c1` [ABD730, 3-(2′,4′-Dichlorobiphenyl-4-ylsulfonamido)-N,N-dimethylbenzamide], the half-life at 3 μM in data set [2] was 15 min. The amount in solution in data set [1] (setting [3]) (solubility at 24 h) came to 20 µg/mL (≈ 44.5 µM).

As to `CC(=O)c1cccc(NS(=O)(=O)c2ccc(-c3ccc(Cl)cc3Cl)cc2)c1` [ABD746, N-(3-Acetylphenyl)-2′,4′-dichlorobiphenyl-4-sulfonamide, reference compound], the half-life at 3 μM in data set [2] came out at 11 min. The same compound returned a solubility at 24 h in data set [1] (setting [3]) of 8 µg/mL (≈ 19 µM).

Regarding `CN(C)CC(O)c1cccc(NS(=O)(=O)c2ccc(-c3ccc(F)cc3F)cc2)c1` (stereo not shown) [ABD784, N-(3-(2-(Dimethylamino)-1-hydroxyethyl)phenyl)-2′,4′-difluorobiphenyl-4-sulfonamide], the negative logarithm of the IC50 (pIC50) in the data set on J774 macrophages (Mus musculus) was 5.84.

`CN[C@@H](CO)c1cccc(NS(=O)(=O)c2ccc(-c3ccc(F)cc3F)cc2)c1` [ABD810, (R)-2′,4′-Difluoro-N-(3-(2-hydroxy-1-(methylamino)ethyl)phenyl)biphenyl-4-sulfonamide]: in the data set on J774 macrophages (Mus musculus), the pIC50 was 5.99.

For `CN[C@H](CO)c1cccc(NS(=O)(=O)c2ccc(-c3ccc(F)cc3F)cc2)c1` [ABD811, (S)-2′,4′-Difluoro-N-(3-(2-hydroxy-1-(methylamino)ethyl)phenyl)biphenyl-4-sulfonamide], the negative-log IC50 (pIC50) in the data set with J774 macrophages (Mus musculus) is 6.46.

For the compound `N[C@@H](CO)c1cccc(NS(=O)(=O)c2ccc(-c3ccc(F)cc3F)cc2)c1` [ABD854, (R)—N-(3-(1-Amino-2-hydroxyethyl)phenyl)-2′,4′-difluorobiphenyl-4-sulfonamide], the pIC50 in the data set with J774 macrophages (Mus musculus) was 5.87.

Turning to `CC(N)(CO)c1cccc(NS(=O)(=O)c2ccc(-c3ccc(F)cc3F)cc2)c1` (stereo not shown) [ABD862, N-(3-(2-Amino-1-hydroxypropan-2-yl)phenyl)-2′,4′-difluorobiphenyl-4-sulfonamide], the pIC50 in the data set with J774 macrophages (Mus musculus) was 5.61.
